Data on six compounds can be found in publication PMC8198043, “Tetracyclic Thioxanthene Derivatives: Studies on Fluorescence and Antitumor Activity” (Molecules, 2021).

Structures are written as SMILES. Bounds are passed on as bounds.

The subject of series [1] is myeloid leukemia K562 cell line (doxorubicin-resistant). On the set-up: method as in PMID 26771595. The following applies: previous results by the group; cited from earlier work.
Series [2] concerns myeloid leukemia K562 cell line (doxorubicin-sensitive). Also noted: method as in PMID 26771595. The following applies: previous results by the group; cited from earlier work.
The subject of series [3] is A375-C5 (melanoma). In words: SRB cell growth inhibition assay, A375-C5. In kind it is cell-based, human. The settings on record: for GI50: Homo sapiens, A375-C5, SRB assay, continuous exposure for 48 h, mean ± SD, at least three independent experiments, read-out: Antitumor Activity (GI50) A375-C5; for Selectivity Index A375-C5: ratio of GI50 in non-tumor HPAEpiC cells over GI50 in A375-C5. The protocol:
(§1) To evaluate the biological activity of compounds 11–14, three human tumor cell lines (European Collection of Cell Culture, Salisbury, Wiltshire, UK) were used: A375-C5 (melanoma), MCF-7 (breast adenocarcinoma) and NCI-H460 (non-small cell lung cancer). Cells were grown in RPMI-1640 culture medium (Biochrom, Berlin, Germany) supplemented with 5% heat-inactivated fetal bovine serum (FBS, Biochrom) and maintained in a humidified incubator at 37 °C with 5% CO2 (Hera Cell, Heraeus).
(§2) The antitumor activity of compounds was accessed through the determination of the GI50 by the sulforhodamine B assay (SRB, Sigma-Aldrich). Tumor cells were seeded in 96-well plates (0.05 × 10^6 cells/well) in complete culture medium and incubated at 37 °C for 24 h, allowing cell attachment. Cells were then incubated with two-fold serial dilutions of the test compounds, with concentrations ranging from 0 to 75 μM. Dimethyl sulfoxide-treated cells (DMSO), up to 0.25% concentration, were included as compounds solvent control. Forty-eight hours later, cells were fixed with 50% (m/v) trichloroacetic acid (Merck Millipore, Darmstadt, Germany), washed with distilled water and stained with SRB for 30 min at room temperature. The SRB-stained cells were washed 5 times with 1% (v/v) acetic acid (Merck Millipore) and afterwards dried at RT; SRB complexes were solubilized by adding 10 mM Tris-Base buffer (Sigma-Aldrich) for 30 min. Absorbance was measured at 515 nm in a microplate reader (BioTek Synergy 2, BioTek Instruments Inc., Winooski, VT, USA).The concentration that caused cell growth inhibition of 50% (GI50) was determined based on a dose–response curve obtained for each cell line with each test compound.
For orientation: In SRB staining, fixed cells bind dye roughly in proportion to their protein.

Series [4] relates to MCF-7 (breast adenocarcinoma). In words: SRB cell growth inhibition assay, MCF-7. The settings on record: for GI50: Homo sapiens, MCF7, SRB assay, continuous exposure for 48 h, mean ± SD, at least three independent experiments, read-out: Antitumor Activity (GI50) MCF-7; for Selectivity Index MCF-7: ratio of GI50 in non-tumor HPAEpiC cells over GI50 in MCF-7. In kind it is cell-based, human. The protocol: as §1, §2

For series [5], the system named is NCI-H460 (non-small cell lung cancer). In words: SRB cell growth inhibition assay, NCI-H460. In kind it is cell-based, human. The following applies: for GI50: Homo sapiens, NCI-H460, SRB assay, continuous exposure for 48 h, mean ± SD, at least three independent experiments, read-out: Antitumor Activity (GI50) NCI-H460; for Selectivity Index NCI-H460: ratio of GI50 in non-tumor HPAEpiC cells over GI50 in NCI-H460. The protocol: as §1, §2

Series [6] has as its system A375-C5, MCF-7 and NCI-H460. In words: SRB cell growth inhibition, span over the three tumor cell lines. It is filed as cell-based. The following applies: Homo sapiens; A375-C5, MCF-7 and NCI-H460 taken together; read-out: GI50, range over the tested cell lines. The protocol:
as §1
The antitumor activity of compounds was accessed through the determination of the GI50 by the sulforhodamine B assay (SRB, Sigma-Aldrich). Tumor cells were seeded in 96-well plates (0.05 × 10^6 cells/well) in complete culture medium and incubated at 37 °C for 24 h, allowing cell attachment. Cells were then incubated with two-fold serial dilutions of the test compounds, with concentrations ranging from 0 to 75 μM. Dimethyl sulfoxide-treated cells (DMSO), up to 0.25% concentration, were included as compounds solvent control. Forty-eight hours later, cells were fixed with 50% (m/v) trichloroacetic acid (Merck Millipore, Darmstadt, Germany), washed with distilled water and stained with SRB for 30 min at room temperature. […]

A short description of series [7]: Photophysical studies (absorption and emission in DMSO). It is filed as physicochemical. The settings on record: for λmax: absorption; for λem: emission; for ΦF: fluorescence quantum yield, by comparison with fluorescein (φf = 90%); for log ε: molar absorption coefficient. The protocol:
The absorption spectra in dimethyl sulfoxide solutions were obtained on a Shimadzu UV-2501 PC spectrophotometer (1 cm path length quartz cell) and the emission spectra were recorded on a JASCO spectrofluorometer. Molar absorption coefficients were determined using 4 measurements in the concentration range 10^−3–10^−6 mol.L^−1. Fluorescence quantum yields were determined by comparison with fluorescein in 0.1 M NaOH water solution as a fluorescence standard (φf = 90%).

For series [8], the system named is Human Pulmonary Alveolar Epithelial Cells (HPAEpiC). In words: Cell toxicity in non-tumor cells (GI50). In kind it is cell-based. The following applies: mean ± SD of three independent experiments. The protocol: as §2
The non-tumor Human Pulmonary Alveolar Epithelial Cells (HPAEpiC) were used to assess the degree of selectivity of the compounds, as the ratio of GI50 in non-tumor cells over GI50 in cancer cells. A selectivity index value less than 2.0 indicates the general toxicity of the compound [32].

A word on the GI50: it is the concentration at which growth is held to half of that of the control. As for `CCCOc1ccc(NCCN(CC)CC)c2c(=O)c3ccccc3sc12` [Compound 4], the GI50 in series [1] and in series [2] was 1.9 µM each time.

Turning to `CCCOc1ccc2nc(N)nc3c2c1Sc1ccccc1-3` [Compound 11, 6-Propoxythiochromeno[4,3,2-de]quinazolin-2-amine], in series [3], the GI50 turned out to be 6.48 ± 0.88 µM and the “Selectivity Index A375-C5” value stood at 4.13. Also, in series [4], the GI50 came out at 6.39 ± 0.49 µM and the “Selectivity Index MCF-7” value came to 4.19. In addition, in series [5], the GI50 came out at 5.66 ± 0.89 µM and the “Selectivity Index NCI-H460” value was determined as 4.73. Moreover, in series [6], the GI50 fell in the range of 5 to 7 µM. Besides, in series [7], the “Stokes’ Shift” value is 92 nm, the λmax stood at 456 nm, the λem was found to be 548 nm and the ΦF is recorded as 29.0%. Moreover, the “log ε” value in series [7] amounted to 3.67. Moreover, the GI50 in series [8] turned out to be 26.8 ± 1.2 µM.

For the compound `CCCOc1ccc2ncnc3c2c1Sc1ccccc1-3` [Compound 12, 6-Propoxythiochromeno[4,3,2-de]quinazoline], in series [3], the GI50 is 38.8 ± 5.93 µM and the “Selectivity Index A375-C5” value is 1.01. Besides, in series [4], the 50% growth inhibitory concentration (GI50) was 33.8 ± 1.61 µM and the “Selectivity Index MCF-7” value came out at 1.16. In series [5], the GI50 worked out at 31.2 ± 1.53 µM and the “Selectivity Index NCI-H460” value was 1.26. In series [7], the “Stokes’ Shift” value was 89 nm, the λmax is given as 394 nm, the λem is given as 483 nm and the ΦF is 50.7%. In series [7], the “log ε” value is 3.72. Also, the GI50 in series [8] was found to be 39.28 ± 0.25 µM.

Consider `CCCOc1ccc2nc(NCc3ccccc3Cl)nc3c2c1Sc1ccccc1-3` [Compound 13, N-(2-Chlorobenzyl)-6-propoxythiochromeno[4,3,2-de]quinazolin-2-amine], for which, in series [3], the GI50 was 22.9 ± 3.75 µM and the “Selectivity Index A375-C5” value turned out to be 5.59. In series [4], the GI50 is 18.9 ± 1.42 µM and the “Selectivity Index MCF-7” value stood at 6.79. Moreover, in series [5], the GI50 amounted to 17 ± 3.12 µM and the “Selectivity Index NCI-H460” value is on record as 7.54. In series [7], the “Stokes’ Shift” value was found to be 91 nm, the λmax is on record as 457 nm, the λem was determined as 548 nm and the ΦF is given as 31.3%. Besides, in series [7], the “log ε” value amounted to 3.72. Moreover, in series [8], the concentration for 50% growth inhibition (GI50) was determined as 128 ± 1.56 µM.

With `CCCOc1ccc2c3c(n/c(=N/c4ccccc4C)n2-c2ccccc2C)-c2ccccc2Sc13` [Compound 14, (E)-6-Propoxy-N,3-di-o-tolylthiochromeno[4,3,2-de]quinazolin-2(3H)-imine], in series [3], the GI50 came out at 8.02 ± 3.59 µM. The GI50 in series [4] is 9.04 ± 0.89 µM. In addition, the GI50 in series [5] stood at 10.6 ± 0.31 µM. Further, the GI50 in series [6] was in the range of 8 to 11 µM. For the same compound, in series [7], the “Stokes’ Shift” value is given as 80 nm, the λmax is listed as 480 nm, the λem worked out at 560 nm and the ΦF is reported as <0.1%. Moreover, in series [7], the “log ε” value stood at 4.00. For the same compound, in series [8], the GI50 is > 150 µM.

For the compound `COc1cccc2c1C(=O)c1c(O)c3c(c(O)c1C2=O)C[C@@](O)(C(=O)CO)C[C@@H]3O[C@H]1C[C@H](N)[C@H](O)[C@H](C)O1` [Doxorubicin, reference compound], the GI50 turned out to be 0.016 ± 0.005 µM in series [3], 0.018 ± 0.003 µM in series [4], 0.024 ± 0.006 µM in series [5] and 0.054 ± 0.005 µM in series [8]. Further, in series [3], the “Selectivity Index A375-C5” value is listed as 3.38. Also, the “Selectivity Index MCF-7” value in series [4] is on record as 3.00. Besides, the “Selectivity Index NCI-H460” value in series [5] is on record as 2.25.
